Results as given in patent publication US20180237449A1, “FUMAGILLOL SPIROCYCLIC COMPOUNDS AND FUSED BICYCLIC COMPOUNDS AND METHODS OF MAKING AND USING SAME” (Zafgen, Inc., priority 2015, published 2018).
pEC50: −log10 of the molar value. Structures can show the parent of a compound that is named as a salt.

Legend:
[1] = system: Diet Induced Obese (DIO) C57BL/6 mice; experiment: 10 day DIO mouse model, weight loss vs. vehicle; assay type: in vivo; settings: 0.3 mpk sc once a day for 10 days
Source text: The objective of this study design was to investigate the efficacy of disclosed compounds in a 10 day DIO mouse model. Effects on body weight, food intake, hematology and blood chemistry were the primary readouts of this study design. Male, Diet Induced Obese (DIO) C57BL/6 mice, 19-21 weeks of age (13-15 weeks on high fat diet) were ordered from a certified vendor and upon receipt were housed on irradiated corncob bedding in micro-isolator cages on a 12-hour light-dark cycle (0700-1900) at 68-74° F. and 30-70% humidity. Mice were fed Research Diets D12492 (60% Kcal fat, 20% Kcal carbohydrate and 20% protein) and provided water ad libitum. DIO mice were received and housed in the facility for approximately two weeks prior to the start of test article administration. On Day −4 or −3, mice were randomized into study groups based on body weight and body weights were continued to be recorded daily for the duration of the study. Daily food intake was assessed starting on Study Day −2 by weighing of the food with hopper together to avoid loss of food in transfer.
Compounds were formulated into a 100% DMSO stock (at 9 mg/mL) prior to the start, and further diluted into the target working concentration using the vehicle of 10% DMSO in water. Prior to test article administration, starting on Day −3 a dosing acclimation occurred with all animals receiving a subcutaneous injection of vehicle (10% DMSO) only for 3 days. Starting on Day 1, test compounds or vehicle were administered based on individual body weight, subcutaneously, once a day for 10 days. All mice were sacrificed on Day 11, 24 hours following the final dosing on Day 10. After sacrifice, whole blood was collected and analyzed for hematology and blood chemistry parameters.
Compounds were tested for weight loss vs. vehicle at 0.3 and 1.0 mpk sc (mg per kg animal weight delivered subcutaneously), and the results are shown in Table 2 below.

DIO Sprague Dawley rats = experiment: 11 day rat DIO model, weight loss vs. vehicle; assay type: in vivo; settings: 0.3 mpk sc once a day for 11 days
Source text: The objective of this study design is to investigate the efficacy of disclosed compounds in an 11 day rat DIO model used to screen compounds for pharmacologic efficacy on endpoints related to obesity and metabolism. Effects on body weight, food intake, hematology and blood chemistries were the primary readouts of this study design. Male Sprague Dawley rats, approximately 8 weeks of age, were ordered from a certified vendor and housed on irradiated corncob bedding in micro-isolator cages, on a 12-hour light-dark cycle (0700-1900) at 68-74° F. and 30-70% humidity. Rats were fed Research Diets D12451 (45% High Fat) and provided water ad libitum. Rats were received and housed in the facility for at least two or three weeks prior to start of test article administration. On Day −4 or −3, rats were randomized into study groups based on body weight and body weights were continued to be recorded daily for the duration of the study. Daily food intake was assessed starting on Study Day −2 by weighing the hopper including the food to avoid loss of food in transfer.
Compounds were formulated into a 100% DMSO stock (at 9 mg/mL) prior to the start, and further diluted into the target working concentration using the vehicle of 10% DMSO in water. […] After sacrifice, whole blood was collected and analyzed for hematology and blood chemistry parameters. […]

[2] = system: human fibrosarcoma cell line HT-1080; experiment: HT-1080 cell assay (CellTiter-Glo, 72 hours); assay type: cell-based; settings: 72 hours incubation
Description: The human fibrosarcoma cell line HT-1080 were grown to almost complete confluence in T75 tissue culture flasks in preparation for the experiment. The cells were trypsinised and re-suspended in complete medium using DMEM plus 9% FBS including penicillin/streptomycin supplements. 500 cells in a total volume of 25 μl were seeded into black walled 384 well plates and returned to a CO2 incubator over-night. Compounds and standards were prepared at 333.3× actual test concentration in neat DMSO. 10 point dose response curves of test compounds were generated by 1:3 serial dilutions, 2 μl of DMSO stock was transferred to 109 μl complete medium. This was further diluted 1:6 in complete medium, with 5 μl of the resulting solution added to the incubated 384 well plate. […] For experimental blanks at the start of the experiment, CellTiter-Glo was added to a satellite plate of cells (identical to the experimental plate), when adding compounds on Day 1. The average of these wells is used as the blanks in the calculation template. Following 72 hours incubation with compounds and standard the plate was removed from the incubator and allowed to equilibrate at room temperature for at least 30 minutes. CellTiter-Glo was thawed and subsequently 30 μl added to columns 2-23. The plate was covered with a clear Perkin Elmer Topseal and placed on a plate shaker for 10-20 mins to aid homogenous mixing. Luminescence per well was determined using an EnVision 2104 Multilabel Reader (PerkinElmer) or other suitable reader. The compound blank value recorded on Day 1 is subtracted from all other data. Data is expressed as % inhibition of mean DMSO control response and the EC50 is calculated as 50% maximum response. The EC50 values are determined from a sigmoidal 4 parameter curve fit using XLfit in conjunction with Activity Base (IDBS; Guildford, Surrey, UK). The bottom of the curve is fixed to 0% inhibition.

[3] = system: pregnant Sprague Dawley rats; experiment: Rat embryofetal development study; assay type: in vivo; settings: 6 mpk sc once every three days, Gestation Days 6-18
Description: The objective of this study design was to evaluate the potential effects of disclosed compounds on embryo/fetal development when given subcutaneously to pregnant rats once every three days during the critical period of organogenesis (Gestation Days 6-18). Female, Sprague Dawley rats, approximately 10 weeks of age, time bred, were ordered from a certified vendor and housed individually housed in stainless steel cages suspended over flush pans, on a 12-hour light-dark cycle (0700-1900) at 20-26° C. and 30-70% humidity. Rats were fed a standard rodent chow and provided water ad libitum. Rats were received and housed in the facility for a period of approximately 1 to 2 days.
Compounds were formulated using 100% DMSO mixed in Sterile Water for Injection, resulting in 2% DMSO solution in water. If necessary, due to limited solubility of a test article, a higher percentage of DMSO solution in water was used. Groups of 8 mated and presumed pregnant female rats were given subcutaneous doses of vehicle or test article, once every three days, beginning on Gestation Day 6 and ending on Gestation Day 18 (Days 6, 9, 12, 15, and 18), maintained two more days, and then euthanized and necropsied on Gestation Day 20. Body weights was recorded for all animals on Gestation Days 5 (purpose of randomization), 6, 9, 12, 15, 18, and 20 (scheduled euthanasia). Food consumption by weight was recorded on Gestation Days 6, 9, 12, 15, 18, and 20 (scheduled termination).
At necropsy, the dams were examined visually for external abnormalities including palpable masses. The abdominal, thoracic, and cranial cavities and their contents were examined for abnormalities and findings will be recorded. The reproductive tract were examined to record the number of ovarian corpora lutea, the number and location of uterine implantation sites noting the position of the cervix, and the number of early resorptions, late resorptions, live fetuses, and dead fetuses. For dead fetuses and late resorptions, crown-to-rump length and weight were recorded, if possible, and the fetus was discarded. For viable fetuses, weight, sex, and grossly visible external abnormalities were recorded.

Row | SMILES | weight loss vs. vehicle, Mouse @ 0.3 mpk sc (%) [1] [%] | weight loss vs. vehicle, Rat @ 0.3 mpk sc (%) (DIO Sprague Dawley rats) | pEC50 [2] | Rat Embryofetal @6 mpk [3]
1 | CO[C@@H]1[C@H](OC(=O)N2CC3(CNC(=O)C3)C2)CC[C@]2(CO2)[C@H]1[C@@]1(C)O[C@@H]1CC=C(C)C [Example 25, (3R,4S,5S,6R)-5-methoxy-4-((2R,3R)-2-methyl-3-(3-methylbut-2-enyl)oxiran-2-yl)-1-oxaspiro[2.5]octan-6-yl 7-oxo-2,6-diazaspiro[3.4]octane-2-carboxylate] | 2 |  |  | 
2 | CO[C@@H]1[C@H](OC(=O)N2CCC3(CC2)COC3)CC[C@]2(CO2)[C@H]1[C@@]1(C)O[C@@H]1CC=C(C)C [Example 5, (3R,4S,5S,6R)-5-methoxy-4-((2R,3R)-2-methyl-3-(3-methylbut-2-enyl)oxiran-2-yl)-1-oxaspiro[2.5]octan-6-yl 2-oxa-7-azaspiro[3.5]nonane-7-carboxylate] | 16.7 | 6.6 |  | 
3 | CO[C@@H]1[C@H](OC(=O)N2C[C@@H]3[C@H](C2)[C@H]3C(=O)NCCN2CCOCC2)CC[C@]2(CO2)[C@H]1[C@@]1(C)O[C@@H]1CC=C(C)C [Example 37, (1R,5S,6R)-(3R,4S,5S,6R)-5-methoxy-4-((2R,3R)-2-methyl-3-(3-methylbut-2-en-1-yl)oxiran-2-yl)-1-oxaspiro[2.5]octan-6-yl 6-((2-morpholinoethyl)carbamoyl)-3-azabicyclo[3.1.0]hexane-3-carboxylate] | 4.3 |  |  | 
4 | CO[C@@H]1[C@H](OC(=O)N2CC3(C2)CS(=O)(=O)C3)CC[C@]2(CO2)[C@H]1[C@@]1(C)O[C@@H]1CC=C(C)C [Example 23, (3R,4S,5S,6R)-5-methoxy-4-((2R,3R)-2-methyl-3-(3-methylbut-2-enyl)oxiran-2-yl)-1-oxaspiro[2.5]octan-6-yl 2-thia-6-azaspiro[3.3]heptane 2,2-dioxide-6-carboxylate] | 2 |  |  | 
5 | CO[C@@H]1[C@H](OC(=O)N2CC3C(C2)C3(F)F)CC[C@]2(CO2)[C@H]1[C@@]1(C)O[C@@H]1CC=C(C)C (stereo partly drawn) [Example 22, (3R,4S,5S,6R)-5-methoxy-4-((2R,3R)-2-methyl-3-(3-methylbut-2-enyl)oxiran-2-yl)-1-oxaspiro[2.5]octan-6-yl 6,6-difluoro-3-azabicyclo[3.1.0]hexane-3-carboxylate] |  |  | > 9.30 | Negative
6 | CO[C@@H]1[C@H](OC(=O)N2CC3(COC3)C2)CC[C@]2(CO2)[C@H]1[C@@]1(C)O[C@@H]1CC=C(C)C [Example 2, (3R,4S,5S,6R)-5-methoxy-4-((2R,3R)-2-methyl-3-(3-methylbut-2-enyl)oxiran-2-yl)-1-oxaspiro[2.5]octan-6-yl 2-oxa-6-azaspiro[3.3]heptane-6-carboxylate] |  |  | > 9.30 | Positive
7 | CO[C@@H]1[C@H](OC(=O)N2CCC3(CCOCC3)C2)CC[C@]2(CO2)[C@H]1[C@@]1(C)O[C@@H]1CC=C(C)C [Example 27, (3R,4S,5S,6R)-5-methoxy-4-((2R,3R)-2-methyl-3-(3-methylbut-2-enyl)oxiran-2-yl)-1-oxaspiro[2.5]octan-6-yl 8-oxa-2-azaspiro[4.5]decane-2-carboxylate] |  |  | > 9.30 | Positive
8 | CO[C@@H]1[C@H](OC(=O)N2CCC3(CCN(C)CC3)CC2)CC[C@]2(CO2)[C@H]1[C@@]1(C)O[C@@H]1CC=C(C)C [Example 28, (3R,4S,5S,6R)-5-methoxy-4-((2R,3R)-2-methyl-3-(3-methylbut-2-enyl)oxiran-2-yl)-1-oxaspiro[2.5]octan-6-yl 9-methyl-3,9-diazaspiro[5.5]undecane-3-carboxylate] | 8 |  |  | 
9 | CO[C@@H]1[C@H](OC(=O)NC2CC3(CCN(C)C3)C2)CC[C@]2(CO2)[C@H]1[C@@]1(C)O[C@@H]1CC=C(C)C (stereo partly drawn) [Example 11, (3R,4S,5S,6R)-5-methoxy-4-((2R,3R)-2-methyl-3-(3-methylbut-2-enyl)oxiran-2-yl)-1-oxaspiro[2.5]octan-6-yl 6-methyl-6-azaspiro[3.4]octan-2-ylcarbamate formate] | 6 |  |  | 
10 | CO[C@@H]1[C@H](OC(=O)N2CC3(CCN(CC(F)F)CC3)C2)CC[C@]2(CO2)[C@H]1[C@@]1(C)O[C@@H]1CC=C(C)C [Example 9, (3R,4S,5S,6R)-5-methoxy-4-((2R,3R)-2-methyl-3-(3-methylbut-2-enyl)oxiran-2-yl)-1-oxaspiro[2.5]octan-6-yl 7-(2,2-difluoroethyl)-2,7-diazaspiro[3.5]nonane-2-carboxylate formate] |  |  | > 9.30 | Positive
11 | CO[C@@H]1[C@H](OC(=O)/C=C/c2ccc(OCCN(C)C)cc2)CC[C@]2(CO2)[C@H]1[C@@]1(C)O[C@@H]1CC=C(C)C [compound A, [(3R,6R,7S,8S)-7-methoxy-8-[(2R,3R)-2-methyl-3-(3-methylbut-2-enyl)oxiran-2-yl]-2-oxaspiro[2.5]octan-6-yl] (E)-3-[4-[2-(dimethylamino)ethoxy]phenyl]prop-2-enoate, reference compound] |  |  |  | Positive
